Data published in DBAASP.
In brackets after ≈: the same amount, converted by molar mass. Several values for one entry are separate records, joined by “and”; a condition that tells them apart may be missing. Identical values can stand only once.

Assays:
Assay in all cases: ≥ marks a high value that may be exact or a test limit, other limits are often not marked, values filed in µg/mL are converted to µM
[1] = system: Salmonella enterica subsp. enterica serovar Typhimurium ATCC 14028
[2] = system: Escherichia coli DH5alpha
[3] = system: Klebsiella pneumoniae ATCC 10031
[4] = system: Klebsiella pneumoniae ATCC 13883
[5] = system: Enterococcus faecalis ATCC 29212
Escherichia coli B = system: Escherichia coli B
Pseudomonas aeruginosa = system: Pseudomonas aeruginosa
Bacillus subtilis 168 = system: Bacillus subtilis 168
Staphylococcus aureus = system: Staphylococcus aureus
Escherichia coli UB1005 = system: Escherichia coli UB1005
[6] = system: Escherichia coli ATCC 25922
[7] = system: Salmonella enterica subsp. enterica serovar Typhimurium C77-31
[8] = system: Staphylococcus aureus ATCC 25923
[9] = system: Staphylococcus aureus ATCC 29213
[10] = system: Staphylococcus epidermidis ATCC 12228
[11] = system: Staphylococcus aureus ATCC 43300
[12] = system: Pseudomonas aeruginosa ATCC 27853
Klebsiella pneumoniae = system: Klebsiella pneumoniae
Acinetobacter baumannii = system: Acinetobacter baumannii

SMILES	MIC [1]	MIC (Escherichia coli B) [µM]	MIC (Pseudomonas aeruginosa) [µM]	MIC (Bacillus subtilis 168) [µM]	MIC (Staphylococcus aureus) [µM]	MIC (Escherichia coli UB1005) [µM]	MIC [7] [µM]	MIC [8] [µM]	MIC [10] [µM]	also measured
CC[C@H](C)[C@@H]1NC(=O)[C@H](CCCCN)NC(=O)[C@@H](NC(=O)[C@@H](NC(=O)[C@@H](NC(=O)[C@@H](NC(=O)[C@@H]2CCCN2C(=O)[C@H](CC(C)C)NC(=O)[C@H](Cc2ccccc2)NC(=O)[C@H](CCCCN)NC(=O)[C@H](C)NC(=O)[C@H](C)NC(=O)[C@H](CC(C)C)NC(=O)[C@H](CCCCN)NC(=O)[C@H](CCCCN)NC(=O)[C@H](CC(C)C)NC(=O)[C@H](CC(C)C)NC(=O)[C@H](CCCCN)NC(=O)[C@H](CC(C)C)NC(=O)[C@@H](N)Cc2ccccc2)[C@@H](C)O)[C@@H](C)CC)[C@@H](C)CC)CSSC[C@@H](C(=O)O)NC(=O)[C@H](CCCCN)NC(=O)[C@H](Cc2ccc(O)cc2)NC(=O)[C@H](CO)NC1=O [FLKLLKKLAAKFLPTIICKISYKC]	35.9 µM (≈ 99.9 µg/mL)	–	–	–	–	–	–	–	–	MIC [2]: 18 µM (≈ 50 µg/mL); MIC [3]: ≥ 35.9 µM
CC[C@H](C)[C@H](NC(=O)CNC(=O)[C@H](CO)NC(=O)[C@H](CC(C)C)NC(=O)[C@@H](NC(=O)[C@H](CCCN=C(N)N)NC(=O)CNC(=O)[C@@H](NC(=O)[C@H](CC(C)C)NC(=O)[C@@H]1CCCN1C(=O)[C@H](CC(C)C)NC(=O)[C@@H](N)Cc1ccccc1)[C@@H](C)CC)C(C)C)C(=O)N[C@@H](CC(C)C)C(=O)NCC(=O)N[C@@H](Cc1c[nH]c2ccccc12)C(=O)N[C@@H](CCCCN)C(=O)N[C@@H](CCCN=C(N)N)C(=O)N[C@@H](CCCCN)C(=O)N[C@@H](CCCN=C(N)N)C(=O)N[C@@H](Cc1ccccc1)C(=O)NCC(N)=O [FLPLIGRVLSGILGWKRKRFG]	5 µM and 10 µM	–	–	–	–	–	–	–	–	MIC [4]: 4 µM and 8 µM; MIC [5]: 10 µM (≈ 24.1 µg/mL)
CC[C@H](C)[C@H](NC(=O)[C@H](CO)NC(=O)[C@H](CC(C)C)NC(=O)[C@H](Cc1ccccc1)NC(=O)CN)C(=O)N[C@@H](CC(C)C)C(=O)N[C@@H](CCCCN)C(=O)N[C@@H](CCCCN)C(=O)N[C@H](C(=O)N[C@@H](CC(C)C)C(=O)N[C@@H](CCCCN)C(=O)N[C@H](C(=O)N[C@@H](CCSC)C(=O)N[C@@H](C)C(=O)N[C@@H](Cc1cnc[nH]1)C(=O)N[C@@H](CCSC)C(=O)N[C@@H](CCCCN)C(N)=O)C(C)C)C(C)C [GFLSILKKVLKVMAHMK]	–	1.8 (≈ 3.5 µg/mL)	27.5 (≈ 53.4 µg/mL)	0.9 (≈ 1.75 µg/mL)	5 (≈ 9.71 µg/mL)	–	–	–	–	–
CC[C@H](C)[C@H](NC(=O)[C@H](Cc1cnc[nH]1)NC(=O)[C@H](CCCCN)NC(=O)[C@H](CC(C)C)NC(=O)[C@H](CC(C)C)NC(=O)[C@H](CO)NC(=O)[C@H](CCCCN)NC(=O)[C@H](Cc1c[nH]c2ccccc12)NC(=O)[C@H](CCCCN)NC(=O)CN)C(=O)N[C@@H](CC(C)C)C(=O)N[C@@H](CCCCN)C(N)=O [GKWKSLLKHILK]	–	3.7 (≈ 5.36 µg/mL)	34.2 (≈ 49.6 µg/mL)	1.2 (≈ 1.74 µg/mL)	20 (≈ 29 µg/mL)	–	–	–	–	–
CC[C@H](C)[C@H](NC(=O)[C@H](Cc1cnc[nH]1)NC(=O)[C@H](CCCCN)NC(=O)[C@H](CC(C)C)NC(=O)[C@H](Cc1c[nH]c2ccccc12)NC(=O)[C@H](CO)NC(=O)[C@H](CCSC)NC(=O)[C@H](Cc1c[nH]c2ccccc12)NC(=O)[C@H](CCCCN)NC(=O)CN)C(=O)N[C@@H](CC(C)C)C(=O)N[C@@H](CCCCN)C(N)=O [GKWMSWLKHILK]	–	3.9 (≈ 5.95 µg/mL)	13.5 (≈ 20.6 µg/mL)	1.5 (≈ 2.29 µg/mL)	10.1 (≈ 15.4 µg/mL)	–	–	–	–	–
CC[C@H](C)[C@H](NC(=O)[C@H](Cc1cnc[nH]1)NC(=O)[C@H](CCCCN)NC(=O)[C@H](CC(C)C)NC(=O)[C@H](CC(C)C)NC(=O)[C@H](CO)NC(=O)[C@H](CCC(N)=O)NC(=O)[C@H](Cc1c[nH]c2ccccc12)NC(=O)[C@H](CCCCN)NC(=O)CN)C(=O)N[C@@H](CC(C)C)C(=O)N[C@@H](CCCCN)C(N)=O [GKWQSLLKHILK]	–	8 (≈ 11.6 µg/mL)	56.7 (≈ 82.2 µg/mL)	2.2 (≈ 3.19 µg/mL)	25 (≈ 36.2 µg/mL)	–	–	–	–	–
CC[C@H](C)[C@H](NC(=O)[C@H](Cc1c[nH]c2ccccc12)NC(=O)[C@H](CCCCN)NC(=O)[C@H](CC(C)C)NC(=O)[C@@H](NC(=O)[C@H](CCCCN)NC(=O)CNC(=O)[C@@H](NC(=O)[C@H](CCCCN)NC(=O)[C@H](CCCCN)NC(=O)[C@H](CC(C)C)NC(=O)[C@@H](NC(=O)[C@H](CCCCN)NC(=O)[C@H](CCCN=C(N)N)NC(=O)[C@@H](NC(=O)[C@@H](NC(=O)[C@H](CCCCN)NC(=O)[C@H](CCCN=C(N)N)NC(=O)[C@H](CC(C)C)NC(=O)[C@H](CCCN=C(N)N)NC(=O)[C@H](CCCN=C(N)N)NC(=O)[C@H](Cc1ccccc1)NC(=O)[C@@H](NC(=O)CN)C(C)C)C(C)C)[C@@H](C)O)C(C)C)[C@@H](C)CC)C(C)C)C(N)=O [GVFRRLRKVTRKVLKKIGKVLKWI]	–	–	–	–	–	4 (≈ 11.7 µg/mL)	4 (≈ 11.7 µg/mL)	4 (≈ 11.7 µg/mL)	2 (≈ 5.84 µg/mL)	MIC [6]: 4 µM (≈ 11.7 µg/mL); MIC [9]: 4 µM (≈ 11.7 µg/mL)
CC(C)[C@H](NC(=O)[C@H](CCCCN)NC(=O)[C@H](CCCCN)NC(=O)[C@@H](NC(=O)[C@@H](NC(=O)[C@H](CCCCN)NC(=O)[C@H](CCCCN)NC(=O)[C@@H](NC(=O)[C@@H](NC(=O)[C@H](CCCCN)NC(=O)[C@H](CCCCN)NC(=O)[C@@H](NC(=O)[C@@H](NC(=O)CN)C(C)C)C(C)C)C(C)C)C(C)C)C(C)C)C(C)C)C(N)=O [GVVKKVVKKVVKKV]	–	–	–	≥ 65	–	–	–	–	–	MIC [2]: ≥ 125 µM
CC[C@H](C)[C@H](N)C(=O)N[C@@H](CCCN=C(N)N)C(=O)N[C@H](C(=O)N[C@@H](CCCN=C(N)N)C(=O)N[C@H](C(=O)N[C@@H](CCCN=C(N)N)C(=O)N1CCC[C@H]1C(=O)N[C@H](C(=O)N[C@@H](CCCN=C(N)N)C(=O)N[C@H](C(=O)N[C@@H](CCCN=C(N)N)C(=O)N[C@H](C(=O)N[C@@H](CCCN=C(N)N)C(=O)N1CCC[C@H]1C(=O)O)[C@@H](C)CC)[C@@H](C)CC)[C@@H](C)CC)[C@@H](C)CC)[C@@H](C)CC [IRIRIRPIRIRIRP]	16 µM (≈ 29.3 µg/mL)	–	–	–	–	8 (≈ 14.6 µg/mL)	16 (≈ 29.3 µg/mL)	64 (≈ 117 µg/mL)	> 128	MIC [11]: 64 µM (≈ 117 µg/mL); MIC [12]: 8 µM (≈ 14.6 µg/mL)
CC[C@H](C)[C@H](N)C(=O)N[C@@H](CCCN=C(N)N)C(=O)N[C@H](C(=O)N[C@@H](CCCN=C(N)N)C(=O)N1CCC[C@H]1C(=O)N[C@H](C(=O)N[C@@H](CCCN=C(N)N)C(=O)N[C@H](C(=O)N[C@@H](CCCN=C(N)N)C(=O)N1CCC[C@H]1C(=O)O)[C@@H](C)CC)[C@@H](C)CC)[C@@H](C)CC [IRIRPIRIRP]	> 128 µM	–	–	–	–	≥ 128	≥ 128	> 128	> 128	MIC [11]: > 128 µM; MIC [6]: > 128 µM; MIC [12]: > 128 µM; MIC [9]: > 128 µM
CC(C)C[C@H](NC(=O)[C@H](CCCN=C(N)N)NC(=O)[C@H](C)NC(=O)[C@H](C)NC(=O)[C@H](Cc1c[nH]c2ccccc12)NC(=O)CNC(=O)[C@H](CCCN=C(N)N)NC(=O)[C@@H](N)CCCN=C(N)N)C(=O)N[C@@H](Cc1ccccc1)C(=O)N[C@@H](C)C(=O)N[C@@H](C)C(=O)N[C@@H](Cc1ccccc1)C(=O)NCC(=O)N[C@@H](CCCN=C(N)N)C(=O)N[C@@H](CCCN=C(N)N)C(N)=O [RRGWAARLFAAFGRR]	–	–	–	–	–	–	–	> 30	–	MIC [4]: 30 µM (≈ 53.7 µg/mL); MIC (Klebsiella pneumoniae): 1.2 µM (≈ 2.15 µg/mL); MIC (Acinetobacter baumannii): 4.8 µM (≈ 8.59 µg/mL)
CC(C)C[C@H](NC(=O)[C@H](Cc1c[nH]c2ccccc12)NC(=O)[C@H](CCCCN)NC(=O)[C@H](CCCN=C(N)N)NC(=O)[C@@H](NC(=O)[C@H](Cc1c[nH]c2ccccc12)NC(=O)[C@H](CCCCN)NC(=O)[C@H](CCCN=C(N)N)NC(=O)[C@H](CC(C)C)NC(=O)[C@H](Cc1c[nH]c2ccccc12)NC(=O)[C@@H](N)CCCN=C(N)N)[C@@H](C)O)C(=O)N[C@@H](CCCCN)C(N)=O [RWLRKWTRKWLK]	–	–	–	–	–	4 (≈ 7.02 µg/mL)	16 (≈ 28.1 µg/mL)	16 (≈ 28.1 µg/mL)	8 (≈ 14 µg/mL)	MIC [6]: 4 µM (≈ 7.02 µg/mL); MIC [9]: 8 µM (≈ 14 µg/mL)
